Results: ChEMBL document CHEMBL1148015, “Chipping at large, potent human T-cell leukemia virus type 1 protease inhibitors to uncover smaller, equipotent inhibitors” (Bioorg Med Chem Lett, 2007)
*1 amine or outer side, *2 acyl side, *3 side chain or, on linkers, in order; H or OH if unused. Where a SMILES comes first, the peptide text is derived from it. [ ]: non-standard residue; d: D form. The star is where a group is joined. X1 = O=C([C@@H](O)[C@H](Cc1ccccc1)N[*:1])[*:2]; Thz(5,5-Me2) = CC1(C)SCN[C@@H]1C(=O)O; X2 = N[C@@H](Cc1ccccc1)[C@H](O)C(=O)*

Tests used:
[1] = test system: Human immunodeficiency virus 1; assay: Inhibition of recombinant HIV1 protease at 50 nM
[2] = test system: Human T-cell leukemia virus type I; assay: Inhibition of human recombinant HTLV1 protease at 100 uM

## CSCC[C@H](NC(=O)[C@@H](CSC)NC(=O)[C@H]1N(C(=O)[C@@H](O)[C@H](Cc2ccccc2)NC(=O)[C@@H](NC(=O)[C@H](CCC(N)=O)NC(C)=O)C(C)C)CSC1(C)C)C(N)=O
[1]
  inhibition: 92%
[2]
  inhibition: < 30%

## CSCC[C@H](NC(=O)[C@@H](NC(=O)[C@@H]1CCCN1C(=O)[C@@H](O)[C@H](Cc1ccccc1)NC(=O)[C@H](NC(=O)[C@@H](CCC(N)=O)NC(C)=O)C(C)C)C(C)C)C(=O)N[C@@H](Cc1c[nH]cn1)C(=O)O
[1]
  inhibition: < 30%
[2]
  inhibition: 49%

## CSCC[C@H](NC(=O)[C@@H](NC(=O)[C@@H]1CCCN1C(=O)[C@@H](O)[C@H](Cc1ccccc1)NC(=O)[C@H](NC(=O)[C@H](N)CCC(N)=O)C(C)C)C(C)C)C(=O)N[C@@H](Cc1c[nH]cn1)C(=O)O
[1]
  inhibition: < 30%
[2]
  inhibition: < 30%

## CSCC[C@H](NC(=O)[C@@H](NC(=O)[C@H]1N(C(=O)[C@@H](O)[C@H](Cc2ccccc2)NC(=O)[C@@H](NC(=O)[C@H](C)NC(C)=O)C(C)C)CSC1(C)C)C(C)C)C(N)=O (Ac-AV[X1][Thz(5,5-Me2)]VM-NH2)
[1]
  inhibition: 96%
[2]
  inhibition: 56%

## CSCC[C@H](NC(=O)[C@@H](NC(=O)[C@H]1N(C(=O)[C@@H](O)[C@H](Cc2ccccc2)NC(=O)[C@@H](NC(=O)[C@H](Cc2ccccc2)NC(C)=O)C(C)C)CSC1(C)C)C(C)C)C(N)=O (Ac-FV[X1][Thz(5,5-Me2)]VM-NH2)
[1]
  inhibition: 95%
[2]
  inhibition: 74%

## CC[C@H](C)[C@H](NC(C)=O)C(=O)N[C@H](C(=O)N[C@@H](Cc1ccccc1)[C@H](O)C(=O)N1CSC(C)(C)[C@H]1C(=O)N[C@H](C(=O)N[C@@H](CCSC)C(N)=O)[C@@H](C)CC)[C@@H](C)CC (Ac-II[X1][Thz(5,5-Me2)]IM-NH2)
[1]
  inhibition: 98%
[2]
  inhibition: 94%

## CC[C@H](C)[C@H](NC(C)=O)C(=O)N[C@H](C(=O)N[C@@H](Cc1ccccc1)[C@H](O)C(=O)N1CSC(C)(C)[C@H]1C(=O)N[C@H](C(=O)N[C@@H](Cc1ccccc1)C(N)=O)C(C)C)C(C)C (Ac-IV[X1][Thz(5,5-Me2)]VF-NH2)
[1]
  inhibition: 98%
[2]
  inhibition: 84%

## CC[C@H](C)[C@H](NC(=O)[C@@H](NC(=O)[C@H]1N(C(=O)[C@@H](O)[C@H](Cc2ccccc2)NC(=O)[C@@H](NC(=O)[C@@H](NC(C)=O)[C@@H](C)CC)C(C)C)CSC1(C)C)C(C)C)C(N)=O (Ac-IV[X1][Thz(5,5-Me2)]VI-NH2)
[1]
  inhibition: 97%
[2]
  inhibition: 78%

## CC[C@H](C)[C@H](NC(C)=O)C(=O)N[C@H](C(=O)N[C@@H](Cc1ccccc1)[C@H](O)C(=O)N1CSC(C)(C)[C@H]1C(=O)N[C@H](C(=O)N[C@@H](CC(C)C)C(N)=O)C(C)C)C(C)C (Ac-IV[X1][Thz(5,5-Me2)]VL-NH2)
[1]
  inhibition: 95%
[2]
  inhibition: 54%

## CC[C@H](C)[C@H](NC(C)=O)C(=O)N[C@H](C(=O)N[C@@H](Cc1ccccc1)[C@H](O)C(=O)N1CSC(C)(C)[C@H]1C(=O)N[C@H](C(=O)N[C@@H](CCSC)C(N)=O)C(C)C)C(C)C (Ac-IV[X1][Thz(5,5-Me2)]VM-NH2)
[1]
  inhibition: 98%
[2]
  inhibition: 87%

## CC[C@H](C)[C@H](NC(C)=O)C(=O)N[C@H](C(=O)N[C@@H](Cc1ccccc1)[C@H](O)C(=O)N1CSC(C)(C)[C@H]1C(=O)N[C@H](C(=O)N[C@@H](CCC(N)=O)C(N)=O)C(C)C)C(C)C (Ac-IV[X1][Thz(5,5-Me2)]VQ-NH2)
[1]
  inhibition: 95%
[2]
  inhibition: 86%

## CC[C@H](C)[C@H](NC(C)=O)C(=O)N[C@H](C(=O)N[C@@H](Cc1ccccc1)[C@H](O)C(=O)N1CSC(C)(C)[C@H]1C(=O)N[C@H](C(=O)N[C@H](C(N)=O)C(C)C)C(C)C)C(C)C (Ac-IV[X1][Thz(5,5-Me2)]VV-NH2)
[1]
  inhibition: 96%
[2]
  inhibition: 70%

## CSCC[C@H](NC(=O)[C@@H](NC(=O)[C@H]1N(C(=O)[C@@H](O)[C@H](Cc2ccccc2)NC(=O)[C@@H](NC(=O)[C@H](CC(C)C)NC(C)=O)C(C)C)CSC1(C)C)C(C)C)C(N)=O (Ac-LV[X1][Thz(5,5-Me2)]VM-NH2)
[1]
  inhibition: 99%
[2]
  inhibition: 83%

## CSCC[C@H](NC(=O)[C@@H](NC(=O)[C@H]1N(C(=O)[C@@H](O)[C@H](Cc2ccccc2)NC(=O)[C@H](CSC)NC(=O)[C@H](CCC(N)=O)NC(C)=O)CSC1(C)C)C(C)C)C(N)=O (Ac-QC(Me)[X1][Thz(5,5-Me2)]VM-NH2)
[1]
  inhibition: 96%
[2]
  inhibition: 51%

## CC[C@H](C)[C@H](NC(=O)[C@H](CCC(N)=O)NC(C)=O)C(=O)N[C@@H](Cc1ccccc1)[C@H](O)C(=O)N1CSC(C)(C)[C@H]1C(=O)N[C@H](C(=O)N[C@@H](CCSC)C(N)=O)C(C)C (Ac-QI[X1][Thz(5,5-Me2)]VM-NH2)
[1]
  inhibition: 95%
[2]
  inhibition: 85%

## CSCC[C@H](NC(=O)[C@@H](NC(=O)[C@H]1N(C(=O)[C@@H](O)[C@H](Cc2ccccc2)NC(=O)[C@H](CC(C)C)NC(=O)[C@H](CCC(N)=O)NC(C)=O)CSC1(C)C)C(C)C)C(N)=O (Ac-QL[X1][Thz(5,5-Me2)]VM-NH2)
[1]
  inhibition: 83%
[2]
  inhibition: 54%

## CC[C@H](C)[C@H](NC(=O)[C@H]1N(C(=O)[C@@H](O)[C@H](Cc2ccccc2)NC(=O)[C@@H](NC(=O)[C@H](CCC(N)=O)NC(C)=O)C(C)C)CSC1(C)C)C(=O)N[C@@H](CCSC)C(N)=O (Ac-QV[X1][Thz(5,5-Me2)]IM-NH2)
[1]
  inhibition: 95%
[2]
  inhibition: 74%

## CSCC[C@H](NC(=O)[C@H](CC(C)C)NC(=O)[C@H]1N(C(=O)[C@@H](O)[C@H](Cc2ccccc2)NC(=O)[C@@H](NC(=O)[C@H](CCC(N)=O)NC(C)=O)C(C)C)CSC1(C)C)C(N)=O (Ac-QV[X1][Thz(5,5-Me2)]LM-NH2)
[1]
  inhibition: 84%
[2]
  inhibition: 30%

## CSCC[C@H](NC(=O)[C@@H](NC(=O)[C@H]1N(C(=O)[C@@H](O)[C@H](Cc2ccccc2)NC(=O)[C@@H](NC(=O)[C@H](CCC(N)=O)NC(C)=O)C(C)C)CSC1(C)C)[C@@H](C)O)C(N)=O (Ac-QV[X1][Thz(5,5-Me2)]TM-NH2)
[1]
  inhibition: 78%
[2]
  inhibition: < 30%

## CSCC[C@H](NC(=O)[C@@H](NC(=O)[C@H]1N(C(=O)[C@@H](O)[C@H](Cc2ccccc2)NC(=O)[C@@H](NC(=O)[C@H](CCC(N)=O)NC(C)=O)C(C)C)CSC1(C)C)C(C)C)C(N)=O (Ac-QV[X1][Thz(5,5-Me2)]VM-NH2)
[1]
  inhibition: 96%
[2]
  inhibition: 66%

## CSCC[C@H](NC(=O)[C@@H](NC(=O)[C@H]1N(C(=O)[C@@H](O)[C@H](Cc2ccccc2)NC(=O)[C@@H](NC(=O)[C@@H](NC(C)=O)C(C)C)C(C)C)CSC1(C)C)C(C)C)C(N)=O (Ac-VV[X1][Thz(5,5-Me2)]VM-NH2)
[1]
  inhibition: 95%
[2]
  inhibition: 77%

## CSCC[C@H](NC(=O)[C@@H](NC(=O)[C@@H]1CCCN1C(=O)[C@@H](O)[C@H](Cc1ccccc1)NC(=O)[C@@H](NC(C)=O)C(C)C)C(C)C)C(=O)N[C@@H](Cc1c[nH]cn1)C(=O)O (Ac-V[X1]PVMH-OH)
[1]
  inhibition: < 30%
[2]
  inhibition: < 30%

## CSCC[C@H](NC(=O)[C@@H](NC(=O)[C@@H]1CCCN1C(=O)[C@@H](O)[C@H](Cc1ccccc1)NC(C)=O)C(C)C)C(=O)N[C@@H](Cc1c[nH]cn1)C(=O)O (Ac-[X1]PVMH-OH)
[1]
  inhibition: < 30%
[2]
  inhibition: < 30%

## CC(C)[C@H](NC(=O)[C@H](CCC(N)=O)NC(=O)[C@@H]1CCCN1)C(=O)N[C@@H](Cc1ccccc1)[C@H](O)C(=O)N1CCC[C@H]1C(N)=O (H-PQV[X1]P-NH2)
[1]
  inhibition: < 30%
[2]
  inhibition: < 30%

## CC(C)[C@H](NC(=O)[C@@H]1CCCN1C(=O)[C@@H](O)[C@H](Cc1ccccc1)NC(=O)[C@@H](NC(=O)[C@H](CCC(N)=O)NC(=O)[C@@H]1CCCN1)C(C)C)C(N)=O (H-PQV[X1]PV-NH2)
[1]
  inhibition: < 30%
[2]
  inhibition: < 30%

## CSCC[C@H](NC(=O)[C@@H](NC(=O)[C@@H]1CCCN1C(=O)[C@@H](O)[C@H](Cc1ccccc1)NC(=O)[C@@H](NC(=O)[C@H](CCC(N)=O)NC(=O)[C@@H]1CCCN1)C(C)C)C(C)C)C(N)=O (H-PQV[X1]PVM-NH2)
[1]
  inhibition: < 30%
[2]
  inhibition: 86%

## CSCC[C@H](NC(=O)[C@@H](NC(=O)[C@@H]1CCCN1C(=O)[C@@H](O)[C@H](Cc1ccccc1)NC(=O)[C@@H](NC(=O)[C@H](CCC(N)=O)NC(=O)[C@@H]1CCCN1)C(C)C)C(C)C)C(=O)N[C@@H](Cc1cnc[nH]1)C(=O)O (H-PQV[X1]PVMH-OH)
[1]
  inhibition: < 30%
[2]
  inhibition: 94%

## CSCC[C@H](NC(=O)[C@@H](NC(=O)[C@H]1N(C(=O)[C@@H](O)[C@H](Cc2ccccc2)NC(=O)[C@@H](NC(=O)[C@H](CCC(N)=O)NC(=O)[C@@H]2CCCN2)C(C)C)CSC1(C)C)C(C)C)C(=O)N[C@@H](Cc1c[nH]cn1)C(=O)O (H-PQV[X1][Thz(5,5-Me2)]VMH-OH)
[1]
  inhibition: 58%
[2]
  inhibition: > 99%

## CSCC[C@H](NC(=O)[C@@H](NC(=O)[C@@H]1CCCN1C(=O)[C@@H](O)[C@H](Cc1ccccc1)NC(=O)[C@@H](N)C(C)C)C(C)C)C(=O)N[C@@H](Cc1c[nH]cn1)C(=O)O (H-V[X1]PVMH-OH)
[1]
  inhibition: < 30%
[2]
  inhibition: < 30%

## CSCC[C@H](NC(=O)[C@@H](NC(=O)[C@@H]1CCCN1C(=O)[C@@H](O)[C@@H](N)Cc1ccccc1)C(C)C)C(=O)N[C@@H](Cc1c[nH]cn1)C(=O)O (X2-PVMH-OH)
[1]
  inhibition: < 30%
[2]
  inhibition: < 30%
